Several values for one entry are separate records, joined by “and”; a condition that tells them apart may be missing. Equal entries are not always repeated.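 Tested at 5 concentrations; 48 h exposure; 96-well plates; endpoints linearly interpolated, else capped at highest concentration. Abbreviation: GI50, concentration required for 50% inhibition of growth. TGI is the concentration that stops growth completely.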
What was measured:
Experiment in all cases: NCI-60 cell line screen, 48 h
NCI-H522 lung = system: NCI-H522 lung
SK-OV-3 ovarian = system: SK-OV-3 ovarian
HOP-62 NSCLC = system: HOP-62 NSCLC
786-0 renal = system: 786-0 renal
UACC-257 melanoma = system: UACC-257 melanoma
T-47D breast = system: T-47D breast
HCT-15 colon = system: HCT-15 colon
CCRF-CEM leukemia = system: CCRF-CEM leukemia
SN12C renal = system: SN12C renal
SNB-75 CNS = system: SNB-75 CNS

| Compound | GI50 (NCI-H522 lung) | TGI (NCI-H522 lung) | GI50 (SK-OV-3 ovarian) | TGI (SK-OV-3 ovarian) | GI50 (HOP-62 NSCLC) | TGI (HOP-62 NSCLC) | GI50 (786-0 renal) | TGI (786-0 renal) | GI50 (UACC-257 melanoma) | TGI (UACC-257 melanoma) | GI50 (T-47D breast) | TGI (T-47D breast) | GI50 (HCT-15 colon) | TGI (HCT-15 colon) | GI50 (CCRF-CEM leukemia) | TGI (CCRF-CEM leukemia) | GI50 (SN12C renal) | TGI (SN12C renal) | GI50 (SNB-75 CNS) | TGI (SNB-75 CNS) |
| --- | --- | --- | --- | --- | --- | --- | --- | --- | --- | --- | --- | --- | --- | --- | --- | --- | --- | --- | --- | --- |
| O=C1c2cccc(NCCN=Cc3cc([N+](=O)[O-])ccc3O)c2C(=O)c2c(NCCN=Cc3cc([N+](=O)[O-])ccc3O)cccc21 | 4.07 µM | > 100 µM | 18.9 µM | > 100 µM | 3.37 µM | 59.8 µM | 7.04 µM | > 100 µM | > 100 µM | > 100 µM | 9.38 µM | > 100 µM | 30.3 µM | > 100 µM | 0.963 µM | 9.89 µM | 2.45 µM | > 100 µM | 2.16 µM | 19 µM |
| COc1cccc2c1ccc1nc3cccc(C(=O)N[C@H](C)CN(C)C)c3nc12 | 0.0579 µM | 0.279 µM | 0.144 µM | 1.89 µM | 0.084 µM | 0.787 µM | 0.0887 µM | 2.44 µM | 0.16 µM | 0.659 µM | 0.159 µM | 0.974 µM | 0.053 µM | 10.8 µM | 0.12 µM | 7 µM | 0.0879 µM | 11.7 µM | 0.205 µM | 1.16 µM |
| Nc1nc(N)c2nc(CNc3ccc(C(=O)NC(CC(=O)O)C(=O)O)cc3)cnc2n1 (stereo not given) | 3.97 µM | > 100 µM | > 53.5 µM | > 100 µM | 6.4 µM | > 100 µM | 0.372 µM | > 100 µM | > 33.8 µM | > 100 µM | > 65.6 µM | > 100 µM | 0.526 µM | > 100 µM | 0.422 µM | > 100 µM | 0.922 µM | > 100 µM | 22.2 µM | > 100 µM |
| O=c1cc(-c2ccccc2F)[nH]c2ccc(N3CCCC3)cc12 | < 0.001 µM | – | < 0.001 µM | – | < 0.001 µM | > 100 µM | < 0.001 µM | > 100 µM | – | > 100 µM | > 100 µM | > 100 µM | < 0.001 µM | – | < 0.001 µM | > 100 µM | < 0.001 µM | > 100 µM | – | > 100 µM |
| Cc1ccc(C(CC(=O)c2ccccc2)C2C(=O)NC(=O)NC2=O)cc1 (stereo not given) | > 100 µM | > 100 µM | > 100 µM | > 100 µM | > 100 µM | > 100 µM | > 100 µM | > 100 µM | > 100 µM | > 100 µM | > 100 µM | > 100 µM | > 100 µM | > 100 µM | > 100 µM | > 100 µM | > 100 µM | > 100 µM | > 100 µM | > 100 µM |
| CCC1CN2C(=N1)c1ccccc1-c1cc(Cl)ccc12 (stereo not given) | 2.58 µM | 8.19 µM | 4.27 µM | 24.6 µM | 2.97 µM | 8.87 µM | 3.32 µM | 13 µM | 2.96 µM | 10.3 µM | 3.52 µM | 23 µM | 2.86 µM | 11.5 µM | 2.02 µM | 4.79 µM | 2.97 µM | 17.4 µM | 3.73 µM | 16 µM |
| O=c1ccn(C2CC(O)C(CO)O2)c(=O)[nH]1 (stereo not given) | > 5000 µM | > 5000 µM | > 5000 µM | > 5000 µM | > 5000 µM | > 5000 µM | > 5000 µM | > 5000 µM | > 5000 µM | > 5000 µM | > 5000 µM | > 5000 µM | > 5000 µM | > 5000 µM | 95.8 µM and 110 µM | 838 µM | > 5000 µM | > 5000 µM | > 5000 µM | > 5000 µM |
| CCOC(=O)c1c2c(n(Cc3ccc(Cl)cc3Cl)c1C)-c1nc[nH]c1C(=O)C2=O | 10.3 µM | 23.1 µM | 19.9 µM | 34.2 µM | 16.4 µM | 32.6 µM | 3.37 µM | 11.3 µM | 14.2 µM | 27.3 µM | 1.65 µM | 5.03 µM | 11 µM | 23 µM | 0.651 µM | 2.29 µM | 3.02 µM | 13.1 µM | 1.99 µM | 9.62 µM |
| COc1cccc(-n2nc(C)c3c(N/N=C(\C)c4ccncc4)ncnc32)c1 | > 25 µM | > 25 µM | 13.4 µM | > 25 µM | > 25 µM | > 25 µM | > 25 µM | > 25 µM | > 25 µM | > 25 µM | 6.6 µM | > 25 µM | > 25 µM | > 25 µM | > 25 µM | > 25 µM | > 25 µM | > 25 µM | > 9.22 µM | > 25 µM |
| CCOC(=O)c1cc2c(n1Cc1cccc(OC)c1)-c1oncc1CCC2 | 0.222 µM | 0.704 µM | 3.48 µM | > 100 µM | 3.54 µM | > 100 µM | 6.65 µM | > 100 µM | 3.51 µM | > 100 µM | 1.27 µM | > 100 µM | 0.473 µM | > 100 µM | 2.17 µM | > 100 µM | 6.46 µM | > 100 µM | 0.927 µM | 6.56 µM |
| O=C(Cn1c(=O)c(-c2ccccc2)nc2ccccc21)Nc1ccc(F)cc1 | 65.1 µM | > 100 µM | 64.8 µM | > 100 µM | 49.8 µM | > 100 µM | 75.2 µM | > 100 µM | > 100 µM | > 100 µM | 50.8 µM | > 100 µM | > 100 µM | > 100 µM | 6.46 µM | > 100 µM | 77.5 µM | > 100 µM | 38.8 µM | > 100 µM |
| c1cc2n(n1)CCN2 | – | > 7740 µM | – | > 7350 µM | – | > 9550 µM | – | > 7100 µM | – | > 10000 µM | – | > 10000 µM | – | > 10000 µM | – | 6680 µM | – | 7050 µM | – | 9460 µM |
